“Also recorded” adds a separate entry of the source.
Columns and labels:
[1] = tested on: mouse model of pulmonary sarcoidosis; assay: Mouse model of pulmonary sarcoidosis, lung inflammation grading (Example 1); type: in vivo, C57B1/6 mice; details: sarcoidosis mice, treated two weeks, vs saline-treated sarcoidosis group; MIA-602 5 μg/day intraperitoneal; FIGS. 1A-E
Experimental: Granulomatous reaction in the mouse lung was developed as previously described (Zhang et al., Front Immunol 2019; 10: 2888).
(§1) The detail of the methodology used for confocal microscopy is discussed in Zhang et al., Front Immunol 2019; 10: 2888. To summarize, mice were killed on day 14, and the left lungs were harvested. Lungs were filled with 10% buffered formalin and fixed in formalin for at least 72 h before IHC staining. H&E staining was used to determine inflammatory pathology.
(§2) Lung inflammation was scored using the three fields with the highest infiltrate's intensity at 100× power magnification as previously described (Zhang et al., Front Immunol 2019; 10: 2888). The area of inflammation was measured and averaged for the three examined high-power fields.
A mouse model of pulmonary sarcoidosis was established in C57B1/6 mice by administering microparticles intratracheally. The tongue was pulled out with a small spatula and microparticles were inserted into the trachea using a 20 G angio-catheter tube at the time of laryngeal opening and advanced to main bronchus until reach to resistant. After tube placement, microparticles were administered: a first dose of 5×10^8 CFU of M. abscessus in 50 μL with three subsequent doses of 2×10^8 CFU of M. abscessus in 20 μL. A control group received only 20 μL PBS intratracheally. Mice receiving microparticles developed noncaseating granuloma in the lung, as observed use H&E staining and immunohistochemistry staining for CD68 macrophage marker, CD4 marker, and PD-L1.
The first sarcoidosis group received MIA-602 (5 μg/day), administered via intraperitoneal injection. The second sarcoidosis group received α-melanocyte stimulating hormone (α-MSH), the third sarcoidosis group received steroid treatment (methyl-prednisone, the current first line treatment for sarcoidosis), and the fourth group received only saline. Mice were sacrificed after two weeks, and inflammation in lung samples was graded.

[2] = tested on: granuloma (PBMC challenged with microparticles); assay: Cytokine production in in vitro granuloma from PBMC of sarcoidosis subjects, multiplex ELISA (Example 2); type: cell-based, human; details: 1 microM MIA-602, 48 h, media
Experimental: In vitro granuloma was developed by challenging PBMC with microparticles as previously described (Zhang et al., Sci Rep 2020; 10: 7277).
To measure cytokines in media, supernatant aliquot samples were analyzed, thawed, and spun at 12,000 rpm for 10 min to separate the particulate material at the bottom. Fifty μl of undiluted media was plated from each sample onto a 96-well V-bottom plate (source plate) by manual pipetting according to predefined maps. The aliquots were wrapped in parafilm and kept in a humid chamber at 4° C. during the entire process, but not longer than 72 hr. Growth factors and their receptor's capture antibodies were reconstituted and diluted per manufacturer specification and 50 μl plated into each well of respective 96-well high-binding half-well plates, which were then sealed and incubated overnight at 4° C. The cytokine levels were measured using a procartaplex human th1/th2 cytokine panel 11 plex from Invitrogen, (epx110-10810-901).
Granuloma and PBMC were collected from five sarcoidosis subjects. The samples were grouped as control (not challenged), granuloma group challenged with a 10:1 treatment with microparticles but left untreated, challenged granuloma group treated with 1 microM MIA-602 in vitro, and challenged granuloma group treated with methyl prednisolone in vitro. Media were removed 48 h after of treatments. Cytokines were measured using an multiplex ELISA instrument.

[3] = tested on: in vitro granuloma model (PBMCs challenged with microparticles); assay: Pro- and anti-apoptotic protein levels in in vitro granuloma model (Example 3); type: cell-based, human; details: 1 μM MIA-602, 48 h
Experimental: In vitro granuloma was developed by challenging PBMC with microparticles as previously described (Zhang et al., Sci Rep 2020; 10: 7277). (Zhang et al., Sci Rep 2020; 10: 7277), PBMCs were lysed in lysis buffer (Cell Signaling Technology, Beverly, MA) with protease inhibitor cocktail (Cell Signaling Technology, Beverly, MA) and sonicated three times for 2 seconds each with at least 1-min rest on ice between each 2-s pulse. Samples were centrifuged at 10,000×g for 5 min at 4° C. and the supernatant was collected. Protein concentration was determined by BCA protein assay kit from Cell Signaling Technology. The methodology is further described in .Zhang et al., Sci Rep 2020; 10: 7277. Thirty micrograms of total protein were mixed in a reducing sample buffer and used for mitochondrial apoptosis assay per the kit instruction. The assay was performed using a Bio-Rad kit (171-WAR3CK). The ability of a peptide of the disclosure, MIA-602, to influence respiration and apoptosis in granuloma cells was examined. The specific processes of apoptosis and mitochondrial dynamics in granuloma have not been fully elucidated. To test if MIA-602 had pro- or anti-apoptotic effects, the protein levels of pro-(active caspase-3) and anti-apoptotic factors (survivin, Bcl-xL/Bak dimer, and Mcl-1/Bak dimer) were measured in an in vitro granuloma model. […] Media were removed 48 h after treatment.

[4] = tested on: mouse pulmonary granulomatous model; assay: Mouse pulmonary granulomatous model, H&E and IHC scoring of lung (Example 4); type: in vivo, C57B1/6 mice
Experimental: as §1
(§3) For immunohistochemistry, 5-μm paraffin sections were processed by deparaffinization and rehydration followed by endogenous peroxidase blocking (1% H2O2 in methanol for 20 minutes) and antigen retrieval (boiled in 10 mM citrate buffer for 30 minutes). Tissue sections were blocked with 2% goat or horse serum (Vector Laboratories) and incubated with antibody CD68 (Proteintech, Cat #25747-1-AP), PD-1 (Cell Signaling, cat #84651), PD-L1 (Proteintech, Cat #17952-1-AP), CD30 (Lsbio, cat #LS-c162069) CD3 (Cell Signaling, cat #99940), iNOS (Invitrogen, cat #PAI-036), or Nitrotyrosine (Novus, NBP2-54606) over night at 4° C., washed with TBST five times, then exposed to secondary antibodies (Vector Laboratories, cat #PI-2000). Immunoreactivity was detected using the ABC Elite kit (Vector Laboratories). DAB was used as final chromogen and hematoxylin as the nuclear counterstain. Negative controls for all antibodies were made by replacing the primary antibody with non-immunogen IgG.
as §2
A mouse pulmonary granulomatous model was established for studying type I IFN pathways after exposure to M. abscessus cell wall. The model is applicable for pulmonary sarcoidosis studies due to its characteristics of noninfectious lung granulomatous model. C57B1/6 mice were used to develop the model (Zhang et al., Front Immunol 2019; 10: 2888).
Mice were treated with 5 μg of a peptide of the disclosure, MIA-602, per day via intraperitoneal injection. After two weeks, the mice were sacrificed, and lung inflammation was graded by a lung pathologist. Lung samples were stained with H&E, CD68, PD1, PD-L1, and CD30, and scored based on percentage of cells expressing each marker.

[5] = tested on: sarcoidosis mice model; assay: Flow cytometry of lung single cells in sarcoidosis mice model (Example 5); type: in vivo; details: MIA-602 5 μg, two weeks
Experimental: Mice were sacrificed on day 14, and the left lungs were harvested for pathology after perfusing the right ventricle with 10 ml of PBS.
The upper half of left lung tissue (without trachea, main bronchus and branches) was removed and rinsed by PBS to clean off blood. The tissue was minced and dispersed with a scissors to increase total surface area. To develop single cell suspension, the rubber end of a 5 ml plastic syringe was used to mesh cells through a 100 μm cell strainer with continuous rinse using ice-cold RPMI 1640. Cell suspension was again meshed through a 70 μm cell strainer and rinsed thoroughly with 3 ml of washing buffer containing DNAse followed by 15 ml of DNAse-free washing buffer. The sample was centrifuged at 286×g and 18° C. for 5 min, and the supernatant was discarded (Posel et al. J Vis Exp 2016: 53658).
The cells (10^6 cells/ml) were resuspended in 100 μl protein blocking solution with 5 μl fluorescent conjugated antibodies, CD8 (Biolegend Cat #100714, CD45 (Biolegend Cat #103130), CD68 (Biolegend Cat #137004), PD-1 (Biolegend Cat #135219), PD-L1 (Biolegend Cat #124308), CD4 (Biolegend Cat #100510), CD11b (Biolegend Cat #101243), CD11c (Biolegend Cat #117318), F4/80 (Biolegend Cat #123146), or IFNg (Biolegend Cat #505836). Samples were analyzed on a BD LSR II flow cytometer using BD FACSDiva software, and data analysis was performed using Flowjo software (TreeStar, Ashland, OR). Cell populations were identified using sequential gating strategy; the expression of activation markers was presented as median fluorescence intensity. Lung immune cells were classified based on FC marker expression as previously described (Misharin et al., Am J Respir Cell Mol Biol 2013; 49: 503-510).
Mice were grouped as control, challenged with microparticles and treated with saline, challenged and treated with MIA-602 (5 μg), and challenged and treated with methyl prednisolone (100 μg). After two weeks, lungs were harvested from all groups, and lung single cells were generated for flow cytometry analysis.

[6] = tested on: sarcoidosis mice model; assay: NOS2 and nitrotyrosine staining of lung in sarcoidosis mice model (Example 6); type: in vivo; details: daily intraperitoneal MIA-602 5 μg, lung harvested after three weeks
Experimental: as §3
Inducible nitric oxide synthases (iNOS) produces nitric oxide and has a crucial role in granuloma development. iNOS is expressed in macrophages after exposure to bacterial lipopolysaccharides and IFNγ (Facchetti et al., Am J Pathol 1999; 154: 145-152). […] Lung tissue was harvested after three weeks and tissue stained with NOS2 and nitrotyrosine. […] The finding was not statistically significant.

[7] = tested on: sarcoidosis mice model; assay: RNASeq transcriptomics of lung in sarcoidosis mice model (Example 7); type: in vivo; details: granuloma mice, daily MIA-602 5 μg intraperitoneal vs saline
Experimental: RNA from mouse lungs were extracted using RNA Miniprep Plus Kit (Zymo Research). Briefly, whole lung was homogenized in TRI reagent and total RNA extraction was performed following the instructions provided by the manufacturer with additional DNase treatment. Quantity and quality of the samples were determined by NanoDrop spectrophotometer and Agilent Bioanalyzer 2100, respectively (Zhang et al., Front Immunol 2019; 10: 2888).
Preparation and sequencing of RNA libraries was performed. Briefly, total RNA quantity and quality were determined using the Agilent Bioanalyzer. At least 300 ng of total RNA was used as input for the KAPA RNA HyperPrep Kit with RiboErase (HMR) according to manufacturer's protocol to create ribosomal RNA-depleted sequencing libraries. Sequencing was performed on the Illumina NextSeq 500, generating ˜40 million single-end 75 base reads per sample. Sequencing data were processed with a bioinformatics pipeline including quality control, alignment to the […], and gene quantification. Count data was inputted into edgeR software for differential expression analysis. Counts were normalized using the trimmed mean of M-values (TMM) method to account for compositional difference between the libraries and paired differential expression analysis using a generalized linear model with sample as a blocking factor. […]

In the case of `C[C@H]1C[C@@H]2[C@H]([C@@H](O)C[C@@]3(C)[C@H]2CC[C@]3(O)C(=O)COC(=O)CCC(=O)[O-])[C@@]2(C)C=CC(=O)C=C12.[Na+]` [methyl-prednisone], the “inflammation in lung samples (inflammation score)” value (“inflammation in lung samples” below) [1] is reported as “did not affect inflammation”.
“[PhAc-Ada^0-Tyr^1, D-Arg^2, Fpa5^6, Ala^8, Har^9, Tyr(Me)^10, His^11, Orn^12, Abu^15, His^20, Orn^21, Nle^27, D-Arg^28, Har^29]hGH-RH(1-29)NH2 [MIA-602]” was tested, and the “inflammation in lung samples” value [1] was “lower inflammation scores”, the “cytokine production of CCL2” value [2] was “significantly reduced” and the “cytokine production of CCL5” value [2] was “significantly reduced”. For the same compound, the “cytokine production of CXCL9” value [2] was “significantly reduced”, the “cytokine production of IFNα” value [2] was “significantly reduced” and the “cytokine production of IL2” value [2] was “significantly reduced”. The “cytokine production of IL7” value [2] was “significantly reduced”, the “cytokine production of IL10” value [2] was “significantly reduced” and the “cytokine production of IL12” value [2] was “significantly reduced”. For the same compound, the “cytokine production of IL15” value [2] was “significantly reduced”, the “cytokine production of IL17A” value [2] was “significantly reduced” and the survivin levels ([3]; FIG. 3A) was “no statistical difference between groups”. For the same compound, the “active caspase 3 level” value ([3]; FIG. 3D) was “further increased”, the “level of Mcl-1/Bak dimer” value ([3]; reduced in untreated granuloma, FIG. 3B) was “restored” and the “BclxL/Bak Dimer levels” value ([3]; vs granuloma treated with saline, FIG. 3C) was “increased”. For the same compound, the lung inflammation score ([4]; 5 μg MIA-602 per day intraperitoneal, two weeks, vs granuloma group, H&E) was “lower inflammation scores; also recorded: almost normalized”, the “CD30 cells in lung” value ([4]; 5 μg MIA-602 per day intraperitoneal, two weeks, IHC) was “nonsignificantly reduced” and the “percentage of CD68+ cells in the lung” value ([4]; 5 μg MIA-602 per day intraperitoneal, two weeks, IHC, changes not statistically significant) was “decreased”. The “PD-1+ cells in the lung” value ([4]; 5 μg MIA-602 per day intraperitoneal, two weeks, IHC, same pattern as CD68+ (increased in granuloma, decreased with MIA-602, not significant)) was “This pattern was seen”, the “inflammatory cell numbers in lung tissue” value ([4]; summary of animal model study) was “reduced inflammatory cell numbers significantly” and the “population of CD45+CD68 cells” value ([5]; FIG. 6A) was “significantly reduced”. For the same compound, the “percentage of CD45+CD68+ cells that expressed PD-1” value ([5]; FIG. 6B) was “significantly increased”, the “population of CD45+CD68+PD-L1 cells” value ([5]; FIG. 6C) was “a higher percentage was detected” and the NOS2 expression ([6]; FIG. 7) was “reduced following MIA-602 treatment. The finding was not statistically significant”. For the same compound, the nitrotyrosine levels ([6]; FIG. 8) was “reduced the nitrotyrosine levels, but the reduction was not statistically significant”, the genes downregulated [7] was 293 genes and the genes upregulated [7] was 778 genes.
In the case of “α-melanocyte stimulating hormone [a-MSH]”, the “inflammation in lung samples” value [1] is reported as “lower inflammation scores”.

Source: patent US20250332223A1, “GHRH ANTAGONISTS FOR USE IN A METHOD OF TREATING SARCOIDOSIS” (University of Miami, priority 2019, published 2025)
